Test results from article PMC6001238, “Iterative Chemical Engineering of Vancomycin Leads to Novel Vancomycin Analogs With a High in Vitro Therapeutic Index” (Frontiers in Microbiology, 2018).
In brackets after ≈: the same amount, converted by molar mass. Like-named read-outs stand apart in the source and are kept apart here.

How the values were obtained:
[1] = system: E. faecalis VRE 29; assay: MIC, broth microdilution, vancomycin-resistant E. faecalis VRE 29 (VanA); type: cell-based, Enterococcus faecalis
Procedure, shortened: (§1)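 Controls (ultrapure water; broth not inoculated) were included throughout CLSI-compliant broth microdilution. One condition supplemented analogue or comparator with 10 μM vancomycin, final level.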

[2] = system: 33 clinical VRE isolates; assay: MIC against a set of 33 clinical VRE isolates (range, MIC50, TI); type: cell-based, Enterococcus faecalis
Experimental: (§2) The minimum inhibitory concentration (MIC) was determined using the broth microdilution method according to the antimicrobial susceptibility testing standards of the clinical and laboratory standards institute ([Clinical and Laboratory Standards Institute [CLSI], 2012]). Ultrapure water and non-inoculated broth were used as controls. In one case, a final concentration of 10 μM vancomycin was included with the vancomycin analog or control antibiotic.

[3] = system: MRSA KS89; assay: MIC, broth microdilution, MRSA KS89; type: cell-based, Staphylococcus aureus
Procedure, shortened: as §1

[4] = system: S. aureus VRSA; assay: MIC, broth microdilution, vancomycin-resistant S. aureus (VRSA); type: cell-based, Staphylococcus aureus
Procedure, shortened: as §1

[5] = system: VE 150 (VanB); assay: MIC, VanB-type VRE strain VE 150; type: cell-based, Enterococcus; details: VE 150, VanB; read-out: MIC
Experimental: as §2

[6] = system: 24 clinical MRSA isolates; assay: MIC against a set of 24 clinical MRSA isolates (range, MIC50, TI); type: cell-based, Staphylococcus aureus
Experimental: as §2

[7] = system: VE 148 (VanB); assay: MIC, VanB-type VRE strain VE 148; type: cell-based, Enterococcus; details: VE 148, VanB; read-out: MIC
Experimental: as §2

[8] = system: VE 157 (VanB); assay: MIC, VanB-type VRE strain VE 157; type: cell-based, Enterococcus; details: VE 157, VanB; read-out: MIC
Experimental: as §2

[9] = system: S. aureus VSSA (ATCC 6538); assay: MIC, broth microdilution, vancomycin-sensitive S. aureus (VSSA/MSSA, ATCC 6538); type: cell-based, Staphylococcus aureus
Procedure, shortened: as §1

[10] = system: E. faecalis VRE 37; assay: MIC, broth microdilution, vancomycin-resistant E. faecalis VRE 37 (VanA); type: cell-based, Enterococcus faecalis
Procedure, shortened: as §1

[11] = system: VE 149 (VanB); assay: MIC, VanB-type VRE strain VE 149; type: cell-based, Enterococcus; details: VE 149, VanB; read-out: MIC
Experimental: as §2

[12] = system: human cervix carcinoma (HeLa) cells; assay: Cytostatic activity, HeLa cell proliferation; type: cell-based; details: mean ± SD of three experiments; highest concentration tested 250 µM; 4 days; read-out: Toxicity (IC50) HeLa
Procedure, shortened: (§3)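 Coulter counter cell counts after 37°C culture with compound; IC50 = concentration giving 50% growth inhibition vs negative control. Incubation: L1210 2 d, CEM 3 d, HeLa 4 d. Suspension density before mixing with an equal volume of dilution: 300,000–500,000 cells/mL.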

[13] = system: MRSA; assay: Minimum bactericidal concentration against MRSA; type: cell-based, Staphylococcus aureus
Experimental: Plates were incubated overnight at 37°C and colony growth was inspected.

[14] = system: Murine leukemia (L1210) cells; assay: Cytostatic activity, L1210 cell proliferation; type: cell-based; details: mean ± SD of three experiments; highest concentration tested 250 µM; 2 days; read-out: Toxicity (IC50) L1210
Procedure, shortened: as §3

[15] = system: human T-lymphocyte (CEM) cells; assay: Cytostatic activity, CEM cell proliferation; type: cell-based; details: mean ± SD of three experiments; highest concentration tested 250 µM; 3 days; read-out: Toxicity (IC50) CEM
Procedure, shortened: as §3

[16] = system: S. aureus VISA/HIP5827; assay: MIC, broth microdilution, vancomycin-intermediate S. aureus VISA HIP5827; type: cell-based, Staphylococcus aureus
Procedure, shortened: as §1

[17] = system: VRE39; assay: MIC in the absence and presence of 10 µM vancomycin (vanA induction); type: cell-based, Enterococcus faecalis
Experimental: as §2

[18] = system: E. faecalis VRE 53; assay: MIC, broth microdilution, vancomycin-resistant E. faecalis VRE 53 (VanA); type: cell-based, Enterococcus faecalis
Procedure, shortened: as §1

[19] = system: VE 82 (VanC1); assay: MIC, VanC1-type VRE strain VE 82; type: cell-based, Enterococcus gallinarum; details: VE 82, VanC1; read-out: MIC
Experimental: as §2

[20] = system: L1210, CEM and HeLa cell lines; assay: Cytostatic activity, average or summary over L1210, CEM and HeLa; type: cell-based
Procedure, shortened: as §3

[21] = system: VE 152 (VanB); assay: MIC, VanB-type VRE strain VE 152; type: cell-based, Enterococcus; details: VE 152, VanB; read-out: MIC
Experimental: as §2

[22] = system: E. faecalis VRE 6; assay: MIC, broth microdilution, vancomycin-resistant E. faecalis VRE 6 (VanA); type: cell-based, Enterococcus faecalis
Procedure, shortened: as §1

[23] = system: E. faecalis VSE 1; assay: MIC, broth microdilution, vancomycin-sensitive E. faecalis (VSE 1); type: cell-based, Enterococcus faecalis
Procedure, shortened: as §1

CNC(CC(C)C)C(=O)NC1C(=O)NC(CC(N)=O)C(=O)NC2C(=O)NC3C(=O)NC(C(=O)NC(C(=O)NCC(=O)Nc4ccc(-c5ccccc5)cc4)c4cc(O)cc(O)c4-c4cc3ccc4O)C(O)c3ccc(c(Cl)c3)Oc3cc2cc(c3OC2OC(CO)C(O)C(O)C2OC2CC(C)(N)C(O)C(C)O2)Oc2ccc(cc2Cl)C1O (stereo not shown) [Vanc-83]
MIC ([1]; Enterococcus faecalis VRE 29 (vancomycin-resistant), read-out: MIC): 1.56 µM (≈ 2.59 µg/mL)
MIC-fold improvement vs. vancomycin ([1]; VRE 29, ratio of MIC of vancomycin and MIC of analogue): 256
MIC Range ([2]; 33 clinical VRE isolates): 0.78 to 3.13 µM
TI (IC50/MIC50) ([2]; in vitro therapeutic index, VRE): 69
MIC-fold improvement vs. vancomycin ([3]; MRSA KS8, ratio of MIC of vancomycin and MIC of analogue): 4
MIC ([3]; Staphylococcus aureus MRSA KS8, read-out: MIC): 0.20 µM (≈ 0.332 µg/mL)
MIC ([4]; Staphylococcus aureus VRSA, read-out: MIC): 0.39 µM (≈ 0.646 µg/mL)
MIC-fold improvement vs. vancomycin ([4]; VRSA, ratio of MIC of vancomycin and MIC of analogue): 256
MIC [5]: 1.56 µM (≈ 2.59 µg/mL)
MIC Range ([6]; 24 clinical MRSA isolates): 0.10 to 0.78 µM
TI (IC50/MIC50) ([6]; in vitro therapeutic index, MRSA): 535
MIC50 ([6]; median MIC, 24 clinical MRSA isolates, read-out: MIC50): 0.20 µM (≈ 0.332 µg/mL)
MIC [7]: 1.56 µM (≈ 2.59 µg/mL)
MIC [8]: 1.56 µM (≈ 2.59 µg/mL)
MIC ([9]; Staphylococcus aureus VSSA, read-out: MIC): 0.20 µM (≈ 0.332 µg/mL)
MIC-fold improvement vs. vancomycin ([9]; VSSA, ratio of MIC of vancomycin and MIC of analogue): 4
MIC ([10]; Enterococcus faecalis VRE 37 (vancomycin-resistant), read-out: MIC): 1.56 µM (≈ 2.59 µg/mL)
MIC-fold improvement vs. vancomycin ([10]; VRE 37, ratio of MIC of vancomycin and MIC of analogue): 256
MIC [11]: 1.56 µM (≈ 2.59 µg/mL)
IC50 [12]: 105 ± 27 µM
MBC relative to MIC [13]: MBC equaling their MIC values
IC50 [14]: 179 ± 41 µM
IC50 [15]: 37 ± 6 µM
MIC ([16]; Staphylococcus aureus VISA/HIP5827, read-out: MIC): 1.56 µM (≈ 2.59 µg/mL)
MIC-fold improvement vs. vancomycin ([16]; VISA/HIP5827, ratio of MIC of vancomycin and MIC of analogue): 4
MIC ([17]; VRE39, 0 µM vancomycin): 1.56 µM
MIC ([17]; VRE39, 10 μM vancomycin added): 3.13 µM
MIC ([18]; Enterococcus faecalis VRE 53 (vancomycin-resistant), read-out: MIC): 1.56 µM (≈ 2.59 µg/mL)
MIC-fold improvement vs. vancomycin ([18]; VRE 53, ratio of MIC of vancomycin and MIC of analogue): 256
MIC [19]: 0.78 µM (≈ 1.29 µg/mL)
IC50 ([20]; average IC50 used for TI in Table S5, >250 entered as 250, read-out: IC50): 107 µM
IC50 ([20]; average of L1210, CEM and HeLa, read-out: Toxicity (IC50) Average): 107 µM
MIC [21]: 1.56 µM (≈ 2.59 µg/mL)
MIC ([22]; Enterococcus faecalis VRE 6 (vancomycin-resistant), read-out: MIC): 0.78 µM (≈ 1.29 µg/mL)
MIC-fold improvement vs. vancomycin ([22]; VRE 6, ratio of MIC of vancomycin and MIC of analogue): 256
MIC ([23]; Enterococcus faecalis VSE 1 (vancomycin-sensitive), read-out: MIC): 0.39 µM (≈ 0.646 µg/mL)
MIC-fold improvement vs. vancomycin ([23]; VSE 1, ratio of MIC of vancomycin and MIC of analogue): 4
